Measured values taken from ChEMBL document CHEMBL4014333, “Discovery of Small Molecules for Repressing Cap-Independent Translation of Human Vascular Endothelial Growth Factor (hVEGF) as Novel Antitumor Agents” (J Med Chem, 2017).
Activity calls are given as the source filed them. The rule behind the calls is not given here.

Experiments:
MCF7 [1] = experiment: Cytotoxicity against human MCF7 cells after 24 hrs relative to control; type: cell-based; conditions: mcf7, 24 h
Homo sapiens [2] = species on record: Homo sapiens; experiment: Inhibition of BG4 antibody binding to internal ribosome entry site A RNA G-quadruplex in human MCF7 cells preincubated for 24 hrs followed by BG4 antibody addition measured after 12 hrs by dot blot hybridization assay; type: cell-based
[3] = Binding affinity to 5'- FAM-labeled 5'-GGAGGAGGGGGAGGAGGA-3' DNA (unknown origin) up to 60 uM after 5 mins by MST analysis
MCF7 [4] = experiment: Effect on human VEGF-A transcription expressed in human MCF7 cells assessed as Met luciferase gene expression at 0.1875 to 3 uM by qRT-PCR analysis; type: functional, cell-based
[5] = Binding affinity to RNA (unknown origin) at 1 uM after 24 hrs by spectrophotometric method
[6] = Binding affinity to 5'- FAM-labeled c-Kit1 G-quadruplex DNA (unknown origin) up to 100 uM after 5 mins by MST analysis
Homo sapiens [7] = species on record: Homo sapiens; experiment: Destabilization of human wild type internal ribosome entry site A RNA G-quadruplex expression in human MCF7 cells assessed as decrease in VEGF-A protein expression at 0.1875 to 3 uM by Western blot analysis; type: cell-based
Homo sapiens [8] = species on record: Homo sapiens; experiment: Inhibition of BG4 protein binding to human wild type internal ribosome entry site A RNA G-quadruplex in MCF7 cells transfected with pcDNA3.1-BG4 plasmid at 2.5 to 5 uM after 24 hrs by qRT-PCR analysis; type: cell-based
[9] = Binding affinity to TBA DNA G-quadruplex (unknown origin) at 1 uM after 24 hrs by spectrophotometric method
[10] = Binding affinity to 5'- FAM-labeled wild type human internal ribosome entry site A RNA G-quadruplex after 5 mins by MST analysis
Homo sapiens [11] = species on record: Homo sapiens; experiment: Inhibition of NT-647 dye-labeled BG4 antibody binding to human 5'-UGAUGAGUGUGAGUAGUA-3' RNA by MST analysis
Homo sapiens [12] = species on record: Homo sapiens; experiment: Inhibition of BG4 antibody binding to biotin-labeled human wild type internal ribosome entry site A RNA G-quadruplex at 1.25 to 10 uM after 3 hrs by filter binding assay
Homo sapiens [13] = species on record: Homo sapiens; experiment: Binding affinity to human 5'-UGAUGAGUGUGAGUAGUA-3' RNA at 1 uM after 24 hrs by spectrophotometric method
[14] = Binding affinity to c-MYC Pu27 DNA G-quadruplex (unknown origin) at 1 uM after 24 hrs by spectrophotometric method
Bos taurus = species on record: Bos taurus; experiment: Binding affinity to calf thymus DNA at 1 uM after 24 hrs by spectrophotometric method
[15] = Binding affinity to RNA hairpin (unknown origin) at 1 uM after 24 hrs by spectrophotometric method
Homo sapiens [16] = species on record: Homo sapiens; experiment: Binding affinity to internal ribosome entry site A RNA G-quadruplex region of VEGF-A protein in CoCl2 treated human MCF7 cells assessed as VEGF-A protein induced cell migration at 3 uM preincubated for 48 hrs followed by VEGF-A protein addition measured after 12 hrs by cell scrape test relative to control
Homo sapiens [17] = species on record: Homo sapiens; experiment: Binding affinity to human 5'-AGGAGCCGCAGCCGGAAGAGGAGAGGGGGCCGC-3' DNA at 1 uM after 24 hrs by spectrophotometric method
Homo sapiens [18] = species on record: Homo sapiens; experiment: Binding affinity to internal ribosome entry site A RNA G-quadruplex region of human VEGF-A 5'-UTR at 10 uM by PCR stop assay
MCF7 [19] = experiment: Cytotoxicity against human MCF7 cells after 48 hrs relative to control; type: cell-based; conditions: mcf7, 48 h

With `CCN(CC)CCOc1ccc(Nc2nc(-c3ccccc3NC(=O)CCN3CCN(C)CC3)nc3ccccc23)cc1` the Activity (MCF7 [1]) was 65.5%, the inhibition (Homo sapiens [2]) was “Dose-dependent effect” and the Activity [3] was “Active”. For the same compound, the Activity (MCF7 [4]) was “inactive”, the Activity [5] was “inactive” and the Activity [6] was “Active”. The Activity (Homo sapiens [7]) was “Active”, the inhibition (Homo sapiens [8]) was “Active” and the Activity [9] was “inactive”. For the same compound, the Kd [10] was 1290 nM, the inhibition (Homo sapiens [11]) was “Active” and the inhibition (Homo sapiens [12]) was “Active”. For the same compound, the Activity (Homo sapiens [13]) was “inactive”, the Activity [14] was “inactive” and the Activity (Bos taurus) was “inactive”. The Activity [15] was “inactive”, the Activity (Homo sapiens [16]) was 35% and the Activity (Homo sapiens [17]) was “inactive”. For the same compound, the Activity (Homo sapiens [18]) was “inactive” and the Activity (MCF7 [19]) was 82.7%.
